Data published in PubChem BioAssay (NCI).
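Cells were grown in 96-well plates and exposed to each compound for 48 hours at five concentrations; endpoints were interpolated linearly between bracketing concentrations, or set to the highest concentration if not reached. Abbreviation: GI50, concentration required for 50% inhibition of growth. TGI marks complete inhibition of growth.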

Key:
Assay in all cases: inhibition of tumour cell growth, NCI panel, 48 h
[1] = test system: 786-0 renal
[2] = test system: A498 renal
[3] = test system: A549 NSCLC
[4] = test system: ACHN renal
[5] = test system: BT-549 breast
[6] = test system: CAKI-1 renal
[7] = test system: CCRF-CEM leukemia
[8] = test system: COLO 205 colon
[9] = test system: DU-145 prostate
[10] = test system: EKVX NSCLC
[11] = test system: HCC-2998 colon
[12] = test system: HCT-116 colon
[13] = test system: HCT-15 colon
[14] = test system: HOP-62 NSCLC
[15] = test system: HOP-92 NSCLC
[16] = test system: HS 578T breast
[17] = test system: HT29 colon
[18] = test system: IGROV1 ovarian
[19] = test system: K-562 leukemia
[20] = test system: KM12 colon
[21] = test system: LOX IMVI melanoma
[22] = test system: MALME-3M melanoma
[23] = test system: MCF7 breast
[24] = test system: MDA-MB-231 breast
[25] = test system: MDA-MB-435
[26] = test system: MOLT-4 leukemia
[27] = test system: NCI-H226 lung
[28] = test system: NCI-H23 lung
[29] = test system: NCI-H460 lung
[30] = test system: NCI-H522 lung
[31] = test system: NCI/ADR-RES ovarian
[32] = test system: OVCAR-3 ovarian
[33] = test system: OVCAR-4 ovarian
[34] = test system: OVCAR-5 ovarian
[35] = test system: OVCAR-8 ovarian
[36] = test system: PC-3 prostate
[37] = test system: RPMI-8226 leukemia
[38] = test system: SF-268 CNS
[39] = test system: SF-295 CNS
[40] = test system: SF-539 CNS
[41] = test system: SK-MEL-2 melanoma
[42] = test system: SK-MEL-28 melanoma
[43] = test system: SK-MEL-5 melanoma
[44] = test system: SK-OV-3 ovarian
[45] = test system: SN12C renal
[46] = test system: SNB-19 CNS
[47] = test system: SW-620 colon
[48] = test system: TK-10 renal
[49] = test system: U251 CNS
[50] = test system: UACC-257 melanoma
[51] = test system: UACC-62 melanoma
[52] = test system: UO-31 renal
[53] = test system: HL-60(TB) leukemia
[54] = test system: M14 melanoma
[55] = test system: RXF 393 renal
[56] = test system: SNB-75 CNS
[57] = test system: T-47D breast

O=C1OCC2=C1C(c1cccc(C(F)(F)F)c1)c1cc3c(cc1N2CCO)OCO3 (stereo not drawn)
GI50 [1]: 1.19 µM | TGI [1]: > 50 µM | GI50 [2]: 1.08 µM | TGI [2]: 10.9 µM | GI50 [3]: 2.9 µM | TGI [3]: > 50 µM | GI50 [4]: 3.09 µM | TGI [4]: > 50 µM | GI50 [5]: 0.919 µM | TGI [5]: 27.3 µM | GI50 [6]: 1.76 µM | TGI [6]: > 50 µM | GI50 [7]: 0.955 µM | TGI [7]: > 50 µM | GI50 [8]: 1.18 µM | TGI [8]: 3.26 µM | GI50 [9]: 1.72 µM | TGI [9]: > 50 µM | GI50 [10]: 1.75 µM | TGI [10]: > 50 µM | GI50 [11]: 1.55 µM | TGI [11]: 17 µM | GI50 [12]: 0.408 µM | TGI [12]: > 50 µM | GI50 [13]: 0.511 µM | TGI [13]: > 50 µM | GI50 [14]: 1.97 µM | TGI [14]: > 50 µM | GI50 [15]: 2.03 µM | TGI [15]: > 50 µM | GI50 [16]: 3.01 µM | TGI [16]: > 50 µM | GI50 [17]: 1.31 µM | TGI [17]: 8.4 µM | GI50 [18]: 1.61 µM | TGI [18]: > 50 µM | GI50 [19]: 0.273 µM | TGI [19]: > 50 µM | GI50 [20]: 1.88 µM | TGI [20]: > 50 µM | GI50 [21]: 2.02 µM | TGI [21]: > 50 µM | GI50 [22]: 2.67 µM | TGI [22]: > 50 µM | GI50 [23]: 0.415 µM | TGI [23]: > 50 µM | GI50 [24]: 1.77 µM | TGI [24]: > 50 µM | GI50 [25]: 0.161 µM | TGI [25]: 0.641 µM | GI50 [26]: 1.02 µM | TGI [26]: > 50 µM | GI50 [27]: 21.7 µM | TGI [27]: > 50 µM | GI50 [28]: 2.72 µM | TGI [28]: > 50 µM | GI50 [29]: 1.54 µM | TGI [29]: > 50 µM | GI50 [30]: 0.573 µM | TGI [30]: 2.16 µM | GI50 [31]: 1.34 µM | TGI [31]: > 50 µM | GI50 [32]: 1.32 µM | TGI [32]: > 50 µM | GI50 [33]: 2.49 µM | TGI [33]: > 50 µM | GI50 [34]: 2.19 µM | TGI [34]: > 50 µM | GI50 [35]: 2.51 µM | TGI [35]: > 50 µM | GI50 [36]: 0.926 µM | TGI [36]: > 50 µM | GI50 [37]: 1.79 µM | TGI [37]: > 50 µM | GI50 [38]: 4.78 µM | TGI [38]: > 50 µM | GI50 [39]: 0.801 µM | TGI [39]: > 50 µM | GI50 [40]: 0.884 µM | TGI [40]: 2.73 µM | GI50 [41]: 1.43 µM | TGI [41]: > 50 µM | GI50 [42]: 4.54 µM | TGI [42]: > 50 µM | GI50 [43]: 0.937 µM | TGI [43]: 15.9 µM | GI50 [44]: 2.37 µM | TGI [44]: > 50 µM | GI50 [45]: 2.9 µM | TGI [45]: > 50 µM | GI50 [46]: 1.62 µM | TGI [46]: > 50 µM | GI50 [47]: 0.84 µM | TGI [47]: > 50 µM | GI50 [48]: 10.1 µM | TGI [48]: > 50 µM | GI50 [49]: 1.82 µM | TGI [49]: > 50 µM | GI50 [50]: > 50 µM | TGI [50]: > 50 µM | GI50 [51]: 1.14 µM | TGI [51]: > 50 µM | GI50 [52]: 2.19 µM | TGI [52]: > 50 µM

Cc1ccc(Nc2[nH]c(C(=O)c3ccc(Cl)cc3)c(N)c2C(=S)Nc2ccccc2)nc1
GI50 [1]: 35.7 µM | TGI [1]: > 100 µM | GI50 [2]: 23.4 µM | TGI [2]: 61.8 µM | GI50 [3]: 37.7 µM | TGI [3]: > 100 µM | GI50 [4]: 31.9 µM | TGI [4]: > 100 µM | GI50 [5]: 30.7 µM | TGI [5]: > 100 µM | GI50 [6]: 25.3 µM | TGI [6]: 76.4 µM | GI50 [7]: 38.1 µM | TGI [7]: > 100 µM | GI50 [8]: 31.9 µM | TGI [8]: > 100 µM | GI50 [9]: 31.2 µM | TGI [9]: > 100 µM | GI50 [10]: 35.5 µM | TGI [10]: > 100 µM | GI50 [11]: 15.9 µM | TGI [11]: 33.2 µM | GI50 [12]: 42.8 µM | TGI [12]: > 100 µM | GI50 [13]: 31 µM | TGI [13]: > 100 µM | GI50 [53]: 63.3 µM | TGI [53]: > 100 µM | GI50 [14]: 35.9 µM | TGI [14]: > 100 µM | GI50 [15]: 29.5 µM | TGI [15]: > 100 µM | GI50 [16]: 21.8 µM | TGI [16]: 76.2 µM | GI50 [17]: 57.8 µM | TGI [17]: > 100 µM | GI50 [18]: 31.3 µM | TGI [18]: > 100 µM | GI50 [19]: 45.4 µM | TGI [19]: > 100 µM | GI50 [20]: 16.8 µM | TGI [20]: 54.9 µM | GI50 [21]: 23 µM | TGI [21]: 53.1 µM | GI50 [54]: 77.8 µM | TGI [54]: > 100 µM | GI50 [22]: 13.7 µM | TGI [22]: 42 µM | GI50 [23]: 33.1 µM | TGI [23]: > 100 µM | GI50 [24]: 21.4 µM | TGI [24]: 64.7 µM | GI50 [25]: 23 µM | TGI [25]: 96.3 µM | GI50 [26]: 56.3 µM | TGI [26]: > 100 µM | GI50 [27]: 26 µM | TGI [27]: 91.3 µM | GI50 [28]: 35.1 µM | TGI [28]: > 100 µM | GI50 [29]: 23.9 µM | TGI [29]: > 100 µM | GI50 [30]: 24 µM | TGI [30]: 73.2 µM | GI50 [31]: 15.9 µM | TGI [31]: 87.7 µM | GI50 [32]: 29.4 µM | TGI [32]: 74 µM | GI50 [33]: 63.6 µM | TGI [33]: > 100 µM | GI50 [34]: 33.1 µM | TGI [34]: > 100 µM | GI50 [35]: 22 µM | TGI [35]: 97.3 µM | GI50 [36]: 26.5 µM | TGI [36]: > 100 µM | GI50 [37]: 25.5 µM | TGI [37]: > 100 µM | GI50 [55]: 35.9 µM | TGI [55]: > 100 µM | GI50 [38]: 32.7 µM | TGI [38]: > 100 µM | GI50 [39]: 21.5 µM | TGI [39]: 67.3 µM | GI50 [40]: 19.9 µM | TGI [40]: 44.8 µM | GI50 [41]: 28.1 µM | TGI [41]: > 100 µM | GI50 [42]: 55.2 µM | TGI [42]: > 100 µM | GI50 [43]: 14 µM | TGI [43]: 33.7 µM | GI50 [44]: 52.3 µM | TGI [44]: > 100 µM | GI50 [45]: 18.5 µM | TGI [45]: 37.9 µM | GI50 [46]: 39.4 µM | TGI [46]: > 100 µM | GI50 [56]: 79.3 µM | TGI [56]: > 100 µM | GI50 [47]: 32.7 µM | TGI [47]: > 100 µM | GI50 [57]: 29.8 µM | TGI [57]: > 100 µM | GI50 [48]: 28.1 µM | TGI [48]: > 100 µM | GI50 [49]: 26.8 µM | TGI [49]: > 100 µM | GI50 [50]: 33.3 µM | TGI [50]: > 100 µM | GI50 [51]: 15.3 µM | TGI [51]: 41 µM | GI50 [52]: 24.3 µM | TGI [52]: 86.1 µM
